Test results from patent US20230190707A1, “COMPOSITIONS AND METHODS FOR ENHANCING CANCER IMMUNOTHERAPY” (FRED HUTCHINSON CANCER CENTER, priority 2020, published 2023).
Read-outs that look alike come from different tables or passages of the source.

Key:
[1] = system: CD5^+ splenic T cells; assay: Anti-CD3/CD28 T cell activation and proliferation (CFSE); assay type: cell-based, mouse; conditions: three days of continuous drug exposure
Experimental: Cell lines were grown with half-log10 concentrations of the indicated drug in 4 to 8 technical replicates under standard conditions until the control condition (DMSO or vehicle) was confluent by microscopy. For tumor cell lines, viable cells were quantified via the CellTiter-Glo® assay (Promega Cat. G7573) as per manufacturer instructions. For the ex vivo proliferation of T cells, viable cells were instead quantified via flow cytometry using counting beads. The percentage or number of viable cells with drug treatment was calculated relative to DMSO control (as 100%). […] For absolute cell number, Annexin V+, CD25+, and PD1+ flow cytometry data presented in Figure S4, dose-response models and IC50 values were computed using the R language's dre package (Ritz, C., et al. (2015). Dose-Response Analysis Using R. PLoS One 10, e0146021).
(§1) Plates were coated with 10 μg/mL anti-CD3 (clone 145-2C11, Biolegend Cat. 100302) and 2 μg/mL anti-CD28 (clone 37.51, Biolegend Cat. 102102) in PBS overnight at 4° C. and washed twice with cold PBS prior to use. CFSE-labeled CD5-selected splenic T cells from naïve C57BL/6J mice were obtained identically as for adoptive cell transfer, and 5×10^4 cells incubated with coated plates in the presence of splicing inhibitor drugs at the indicated concentrations, followed by analysis by standard flow cytometry on day 3. Of note, for RNA-seq analyses, T cells were not labeled with CFSE, and underwent activation for 4 days (96 hours) in the presence of various splicing modulator drugs to harmonize experimental conditions with RNA-seq analyses of tumors treated with splicing inhibitors. For the RNA-seq experiments only, T cells in all conditions were also incubated with IL-2 at 50 U/mL to maximize viability and yield.

[2] = system: donor T cells; assay: CFSE adoptive T cell transfer with in vivo splicing modulator treatment
Experimental: Splenic T cells were obtained from B6 or CD45.1 donors by CD5 positive selection (Miltenyi Biotec, Cat. 130-049-301), labeled with CellTrace CFSE (ThermoFisher Cat. C34570) at 10 μM, and adoptively transferred by tail vein injection into lethally irradiated B6, Balb/c, or LP/J recipients, with […] labeled donor T cells transferred per recipient. All recipients were irradiated on day −1 prior to adoptive T cell transfer with 7 Gy as a single fraction and continuously received splicing inhibitor drugs or vehicle control at the indicated doses, from day −1 until day of sacrifice, with the initial dose of drug at least 4 hours after lethal irradiation. Indisulam and MS-023 were solubilized for in vivo administration and animals were treated as above. Pladienolide B (Tocris, Cat. 6070) and GEX1A (Cayman Chemicals, Cat. 25136) were both dissolved in vehicle (10% ethanol and 4% Tween-80 in sterile PBS) and administered i.p., with pladienolide B dosed at 10 mg/kg every other day, and GEX1A dosed at 1.25 mg/kg every four days. For in vivo use, EPZ015666 was dissolved in DMSO and solubilized in 0.5% methylcellulose in water to 20 mg/mL; animals were treated daily with 200 mg/kg by oral gavage.

[3] = system: bone marrow hematopoietic stem and progenitor cells; assay: M3434 methylcellulose colony assay; assay type: cell-based, mouse
Experimental: 25,000 red blood cell-lysed bone marrow mononuclear cells from C57BL/6 mice were plated in duplicates or triplicates in each well of a non-tissue-culture treated 6 well plate with M3434 methylcellulose media in the presence of splicing drugs at the indicated concentrations as per manufacturer's instructions (StemCell Technologies, Cat. 03434) and incubated for seven days prior to quantification of colonies by manual microscopy.

[4] = system: T cells stimulated with anti-CD3 and CD28 antibodies; assay: Gene expression program of activated T cells (RNA-seq); assay type: cell-based, mouse; conditions: ex vivo anti-CD3 and CD28 stimulation in presence of drug
Experimental: as §1
Bulk lung and colon were homogenized using a Qiagen TissueRuptor. For all tissues and cell types, RNA was extracted using an RNeasy kit (Qiagen, Frederick, Md.) and quantified using a NanoDrop 8000 (ThermoFisher Scientific). A minimum of 500 ng of high-quality RNA (as determined by Agilent Bioanalyzer) per sample or replicate was used for library preparation. Poly(A)-selected, strand-specific (dUTP method) Illumina libraries were prepared with a modified TruSeq protocol and sequenced on the Illumina HiSeq 2000 (˜100M 2×101 bp paired-end reads per sample or replicate).

Molecule	IC50 values, T cell proliferation following stimulation (in words) [1]	in vivo T cell proliferation or activation in response to alloantigen ([2]; mouse, in vivo)	hematopoiesis (colony formation) [3]	in vivo T cell proliferation or activation in response to alloantigen ([2]; CD45.1 T cells into irradiated Balb/c or LP/J recipients, daily treatment)	hematopoiesis (colony formation) ([3]; micromolar doses, pladienolide B at nanomolar concentrations)	genes normally upregulated upon T cell activation [4]
CO[C@H]([C@@H](C)[C@H]1O[C@]1(C)C[C@H](C)/C=C/C=C(\C)[C@H]1O[C@@H](CC(=O)O)CC[C@@H]1C)[C@@H](C)O [GEX1A, herboxidiene]	low nanomolar range					
O=C(NC[C@H](O)CN1CCc2ccccc2C1)c1cc(NC2COC2)ncn1 [EPZ015666]		minimal impairment	suppressed hematopoiesis			
pladienolide B	low nanomolar range			markedly suppressed T cell proliferation	even more profoundly suppressed hematopoiesis	markedly attenuated
